Where two headings read alike, the source gives them in different places.
Tests used:
PR-A [1] = biological target: T1, PR-A (Homo sapiens, UniProt P06401); test: In vitro nuclear receptor profile, PR-A agonism; type: cell-based; details: for EC50: agonist mode, read-out: PR-A ago EC50
T1 sequence (P06401 1-769 isoform P06401-2): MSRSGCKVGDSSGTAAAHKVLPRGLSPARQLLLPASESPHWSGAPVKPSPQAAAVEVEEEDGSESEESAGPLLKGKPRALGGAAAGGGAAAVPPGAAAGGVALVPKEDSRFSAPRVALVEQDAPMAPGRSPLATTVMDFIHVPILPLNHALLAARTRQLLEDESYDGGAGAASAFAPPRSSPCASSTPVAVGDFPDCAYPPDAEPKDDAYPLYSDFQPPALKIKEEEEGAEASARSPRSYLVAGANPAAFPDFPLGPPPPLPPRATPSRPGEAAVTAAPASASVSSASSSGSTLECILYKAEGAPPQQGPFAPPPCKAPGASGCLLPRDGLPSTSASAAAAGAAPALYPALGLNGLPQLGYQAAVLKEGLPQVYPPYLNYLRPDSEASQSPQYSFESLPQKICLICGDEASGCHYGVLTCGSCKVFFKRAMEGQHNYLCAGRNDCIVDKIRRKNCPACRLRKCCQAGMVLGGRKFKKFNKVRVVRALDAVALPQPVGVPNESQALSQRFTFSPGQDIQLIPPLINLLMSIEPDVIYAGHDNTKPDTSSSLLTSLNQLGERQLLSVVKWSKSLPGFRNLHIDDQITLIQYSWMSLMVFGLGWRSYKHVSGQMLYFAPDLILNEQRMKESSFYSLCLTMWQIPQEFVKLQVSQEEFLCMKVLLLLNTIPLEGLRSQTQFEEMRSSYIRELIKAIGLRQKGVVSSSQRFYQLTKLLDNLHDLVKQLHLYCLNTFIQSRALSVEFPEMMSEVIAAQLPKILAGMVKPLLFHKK

[2] = system: estrogen receptors in the CNS; test: Lordosis model (facilitation of female sexual behaviour); type: in vivo
[3] = Embryofetal toxicity study in pregnant rats
Solubility in water = type: physicochemical; details: in comparison to Org 41621
Excerpt: As the diseases in which the compounds can be used are in the area of women's health care the vaginal route of administration is also contemplated. A medicine can be formulated in the form of a device for vaginal drug delivery such as in admixture with a flexible polymer for a removable intrauterine device or a removable vaginal device, for example in the form of a ring. Polymers or other additives can also be used for a parenteral implant, such as a subcutaneous implant for extended release of a drug according to the invention. As such, extended release formulations or other formulations aimed at particular absorption profiles are also within the scope of the invention. […] This offers an advantage for uses in the manufacture of medicines wherein higher solubility is desirable, such as a drinkable or injectable formulation.

[4] = biological target: T2, progesterone receptor B (PR-B) (Homo sapiens, UniProt P06401); test: In vitro nuclear receptor profile, PR-B antagonism; type: cell-based; details: for PR-B ant anteff: antagonist efficacy; for IC50: antagonist mode, read-out: PR-B ant IC50
T2 sequence (P06401 1-933): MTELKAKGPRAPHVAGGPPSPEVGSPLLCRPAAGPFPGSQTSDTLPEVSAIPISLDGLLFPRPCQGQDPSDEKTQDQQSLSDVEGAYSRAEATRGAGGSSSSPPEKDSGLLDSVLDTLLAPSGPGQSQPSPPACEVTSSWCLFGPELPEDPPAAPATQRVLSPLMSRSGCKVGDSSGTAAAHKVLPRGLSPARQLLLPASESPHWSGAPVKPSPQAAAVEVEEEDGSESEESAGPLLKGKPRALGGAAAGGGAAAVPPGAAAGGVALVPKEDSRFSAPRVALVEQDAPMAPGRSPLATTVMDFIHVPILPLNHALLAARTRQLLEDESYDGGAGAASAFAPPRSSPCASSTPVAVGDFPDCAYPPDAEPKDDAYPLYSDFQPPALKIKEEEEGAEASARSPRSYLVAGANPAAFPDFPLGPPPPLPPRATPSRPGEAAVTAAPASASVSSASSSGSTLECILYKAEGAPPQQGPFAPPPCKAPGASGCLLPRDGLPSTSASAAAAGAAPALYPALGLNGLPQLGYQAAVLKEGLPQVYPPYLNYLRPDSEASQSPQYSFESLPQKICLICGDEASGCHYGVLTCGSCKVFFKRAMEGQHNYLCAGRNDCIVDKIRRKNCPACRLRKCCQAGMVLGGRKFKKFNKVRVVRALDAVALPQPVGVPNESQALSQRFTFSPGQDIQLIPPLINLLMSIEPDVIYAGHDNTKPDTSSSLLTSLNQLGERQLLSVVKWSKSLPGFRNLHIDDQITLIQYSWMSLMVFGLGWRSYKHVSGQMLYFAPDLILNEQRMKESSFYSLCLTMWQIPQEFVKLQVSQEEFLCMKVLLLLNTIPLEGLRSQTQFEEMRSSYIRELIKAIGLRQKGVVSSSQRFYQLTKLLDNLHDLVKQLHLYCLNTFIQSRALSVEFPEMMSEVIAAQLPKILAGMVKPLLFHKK

[5] = biological target: T2, progesterone receptor B (PR-B); test: In vitro nuclear receptor profile, PR-B agonism; type: cell-based
ERβ [6] = biological target: T3, ERβ (Homo sapiens, UniProt Q92731); test: In vitro nuclear receptor profile, ERβ antagonism; type: cell-based; details: for ERβ ant anteff: antagonist efficacy; for IC50: antagonist mode, read-out: ERβ ant IC50
ERα [7] = biological target: T4, ERα (Homo sapiens, UniProt P03372); test: In vitro nuclear receptor profile, ERα agonism; type: cell-based; details: for ERα ago eff: agonist efficacy
T4 sequence (P03372 1-595): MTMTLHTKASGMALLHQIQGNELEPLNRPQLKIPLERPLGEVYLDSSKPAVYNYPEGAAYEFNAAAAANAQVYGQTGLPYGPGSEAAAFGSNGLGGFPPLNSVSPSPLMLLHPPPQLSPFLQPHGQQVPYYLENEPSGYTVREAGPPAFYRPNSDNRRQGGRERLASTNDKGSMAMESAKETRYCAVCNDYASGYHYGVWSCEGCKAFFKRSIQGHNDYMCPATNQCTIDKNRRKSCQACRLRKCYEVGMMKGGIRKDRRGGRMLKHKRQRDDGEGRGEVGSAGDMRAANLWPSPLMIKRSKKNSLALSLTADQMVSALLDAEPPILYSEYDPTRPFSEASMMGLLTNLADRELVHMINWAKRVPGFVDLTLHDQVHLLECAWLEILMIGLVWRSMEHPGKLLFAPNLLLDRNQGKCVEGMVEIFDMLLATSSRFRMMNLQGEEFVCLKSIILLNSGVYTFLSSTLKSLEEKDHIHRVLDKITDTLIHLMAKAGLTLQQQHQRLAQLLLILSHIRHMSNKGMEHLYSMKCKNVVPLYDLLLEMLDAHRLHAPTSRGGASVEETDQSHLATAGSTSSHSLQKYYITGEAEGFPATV

[8] = system: LH/FSH, uterine tissue, vaginal tissue, cholesterol metabolism, bone; test: 4-week multiple dose study in ovariectomized female rats; type: in vivo, rat
[9] = rat, in vivo
ERα [10] = biological target: T4, ERα; test: In vitro nuclear receptor profile, ERα antagonism; type: cell-based
endometrium = test: 4-week phase I study, plasma exposure and endometrial biopsies; type: in vivo, human; details: biopsies on day 29, female human volunteers
[11] = as above; type: in vivo, human; details: plasma; female human volunteers; formed by metabolism from oral 10 mg daily Org 41621, 4 weeks; read-out: blood plasma level Cmax
bone mineral density = test: AOST BMD (rat); type: in vivo
ovulation [12] = test: Ovulation inhibition in intact cycling female rats; type: in vivo, rat
vaginal tissue = test: Allen-Doisy (rat); type: in vivo
ERβ [13] = biological target: T3, ERβ; test: In vitro nuclear receptor profile, ERβ agonism; type: cell-based; details: agonist mode; read-out: ERβ ago EC50
androgen receptor (AR) = biological target: T5, androgen receptor (AR) (Homo sapiens, UniProt P10275); test: Androgen receptor antagonism in vitro; type: cell-based; details: antagonist; read-out: IC50 as antagonist for the androgen receptor (AR)
T5 sequence (P10275 1-920): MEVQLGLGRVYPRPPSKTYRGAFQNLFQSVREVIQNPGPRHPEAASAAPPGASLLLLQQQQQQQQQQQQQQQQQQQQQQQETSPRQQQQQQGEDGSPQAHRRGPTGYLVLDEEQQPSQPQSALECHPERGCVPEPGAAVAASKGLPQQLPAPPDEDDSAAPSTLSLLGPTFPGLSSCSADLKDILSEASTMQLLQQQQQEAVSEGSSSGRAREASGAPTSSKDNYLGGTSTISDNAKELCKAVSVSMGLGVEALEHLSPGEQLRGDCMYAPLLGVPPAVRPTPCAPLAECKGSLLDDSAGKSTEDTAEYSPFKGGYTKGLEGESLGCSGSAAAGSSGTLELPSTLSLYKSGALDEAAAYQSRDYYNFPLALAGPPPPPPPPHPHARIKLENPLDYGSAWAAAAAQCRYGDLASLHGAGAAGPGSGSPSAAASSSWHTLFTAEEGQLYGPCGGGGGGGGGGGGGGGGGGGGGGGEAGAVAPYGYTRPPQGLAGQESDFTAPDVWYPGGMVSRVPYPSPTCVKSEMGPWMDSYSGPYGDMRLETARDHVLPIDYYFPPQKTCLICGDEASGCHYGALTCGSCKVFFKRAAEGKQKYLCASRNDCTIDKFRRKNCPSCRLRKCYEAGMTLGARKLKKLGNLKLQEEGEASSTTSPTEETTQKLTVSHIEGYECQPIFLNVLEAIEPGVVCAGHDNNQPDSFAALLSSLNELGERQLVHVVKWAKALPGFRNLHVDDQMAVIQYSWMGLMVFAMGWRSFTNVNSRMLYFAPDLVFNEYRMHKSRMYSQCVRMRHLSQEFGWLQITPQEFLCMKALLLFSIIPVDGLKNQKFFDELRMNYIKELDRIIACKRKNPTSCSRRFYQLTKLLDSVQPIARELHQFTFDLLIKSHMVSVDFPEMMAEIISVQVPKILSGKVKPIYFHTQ

PR-A [14] = biological target: T1, PR-A; test: In vitro nuclear receptor profile, PR-A antagonism; type: cell-based; details: for PR-A ant anteff: antagonist efficacy; for IC50: antagonist mode, read-out: PR-A ant IC50
ovulation [15] = test: Ovulation inhibition in intact cycling female monkeys; type: in vivo, Macaca arctoides and Macaca fascicularis; details: 21 days once-a-day oral dosing in gelatine/mannitol
Method: The minimal active dose (MAD) for ovulation inhibition upon oral dosing in gelatine/mannitol was established at <=0.1 mg/kg per day.

T3 sequence (Q92731 whole entry): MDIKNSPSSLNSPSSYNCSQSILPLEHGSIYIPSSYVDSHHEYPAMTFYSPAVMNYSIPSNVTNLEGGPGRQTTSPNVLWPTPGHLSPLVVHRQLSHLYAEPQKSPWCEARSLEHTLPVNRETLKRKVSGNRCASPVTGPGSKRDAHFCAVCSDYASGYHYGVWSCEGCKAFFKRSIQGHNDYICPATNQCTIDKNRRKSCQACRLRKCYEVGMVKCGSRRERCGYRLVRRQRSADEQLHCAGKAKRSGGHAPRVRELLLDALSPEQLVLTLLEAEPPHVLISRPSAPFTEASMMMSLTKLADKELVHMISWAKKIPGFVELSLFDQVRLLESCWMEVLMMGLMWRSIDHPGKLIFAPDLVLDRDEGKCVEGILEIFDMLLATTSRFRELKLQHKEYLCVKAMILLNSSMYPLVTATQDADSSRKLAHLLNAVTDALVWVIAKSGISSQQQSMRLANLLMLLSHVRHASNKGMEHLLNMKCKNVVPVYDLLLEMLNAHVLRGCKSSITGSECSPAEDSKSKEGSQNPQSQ

CCC[C@@H]1Cc2cc(O)ccc2[C@H]2CC[C@@]3(C)[C@@H](C[C@H]4CCC(=O)C[C@]43O)[C@H]12 [Compound 10, (7α,16β,17α)-3,17-dihydroxy-7-propyl-16,24-cyclo-19,21-dinorchola-1,3,5(10)-trien-22-one]
PR-A ago eff (PR-A [1]; agonist efficacy): 0.46
EC50 (PR-A [1]): 30 nM
activity at PR-A in words (PR-A [1]; nanomolar activity): partial (ant)agonist
Lordosis (rat) MAD p.o. ([2]; p.o.): 0.14 mg/kg · day
response in the lordosis model ([2]; rat): near full agonist response
minor defects (wavy ribs) incidence ([3]; 0.1 mg/kg): 4/153
major fetal defects ([3]; treated groups): No major defects
solubility in water (Solubility in water): very well soluble in water
PR-B ant anteff [4]: 0.55
IC50 [4]: 3.7 nM
PR-B ago eff ([5]; agonist efficacy): 0.49
activity at PR-B in words ([5]; nanomolar activity): partial (ant)agonist
EC50 ([5]; read-out: EC50 for progesterone receptor B (PR-B)): 3.8 nM
activity at ERβ in words (ERβ [6]): full antagonist
ERβ ant anteff (ERβ [6]): 0.83
IC50 (ERβ [6]): 8.4 nM
behaviour on vaginal tissue, cholesterol metabolism and bone (bone mineral density, osteocalcin) [8]: behaves as an estrogen receptor agonist
circulating levels of LH and FSH ([8]; 4 weeks, oral and subcutaneous in gelatine/mannitol): effectively suppress
stimulation of rat uterine tissue (uterine weight) ([8]; daily oral dosing for 4 weeks, FIG. 1): only mildly stimulates
dosages inducing early resorptions ([9]; female, po): > 0.3 mg/kg
post implantation loss ([9]; female, po, 0.3 mg/kg): approx. 80%
fetal effects ([9]; 0.3 mg/kg): No effects
teratogenicity ([9]; 0.3 mg/kg): no evidence of teratogenicity
ERα ant anteff (ERα [10]; antagonist efficacy): 0.47
endometrial histopathology scores (endometrium): mostly atrophic or inactive endometrium
endometrial hyperplasia (endometrium): no signs of hyperplasia
Cmax [11]: 16 nM
AOST BMD (rat) MAD p.o. (bone mineral density): 0.12 mg/kg · day
minimal active dose (MAD) to inhibit ovulation (ovulation [12]; intact regularly cycling female rats): 0.1 mg/kg per day
Ovulation Inhibition (rat) MAD p.o. (ovulation [12]; rat, p.o.): 0.10 mg/kg · day
Allen-Doisy (rat) MAD p.o. (vaginal tissue): 0.15 mg/kg · day
EC50 (ERβ [13]): > 10000 nM
IC50 (androgen receptor (AR)): 125 nM
PR-A ant anteff (PR-A [14]): 0.54
IC50 (PR-A [14]): 27 nM
minimal active dose (MAD) for ovulation inhibition (ovulation [15]): <= 0.1 mg/kg per day

CCC[C@@H]1Cc2cc(O)ccc2[C@H]2CC[C@@]3(C)[C@@H](C[C@H]4CC[C@H](O)C[C@]43O)[C@H]12 [Org 41621, (7α,16β,17α,22β)-7-propyl-16,24-cyclo-19,21-dinorchola-1,3,5(10)-triene-3,17,22-triol, reference compound]
EC50 (PR-A [1]): > 100 nM
PR-B ant anteff [4]: 0.74
IC50 [4]: 20.8 nM
EC50 ([5]; agonist mode, read-out: PR-B ago EC50): > 100 nM
ERβ ant anteff (ERβ [6]): 0.89
IC50 (ERβ [6]): 3.8 nM
ERα ago eff (ERα [7]): 0.95
EC50 (ERα [7]; agonist mode, read-out: ERα ago EC50): 0.28 nM
major fetal abnormalities (ribs, humerus, scapula) ([9]; female, po, 0.09 mg/kg): 3/273
post implantation loss ([9]; female, po, 0.09 mg/kg): 15%
major fetal abnormalities (ribs, humerus, scapula) ([9]; female, po, 0.15 mg/kg): 11/216
post implantation loss ([9]; female, po, 0.15 mg/kg): 24%
IC50 (ERα [10]; antagonist mode, read-out: ERα ant IC50): > 1000 nM
EC50 (ERβ [13]): > 100 nM
PR-A ant anteff (PR-A [14]): 0.85
IC50 (PR-A [14]): 58.3 nM

— patent US8367648B2, “Substituted 16,17-annellated steroid compounds for use in womens healthcare” (MSD OSS B.V., priority 2009, dated 2013)
